Read-outs that look alike come from different tables or passages of the source. Marks after values point to notes of the source that are not given here.
How the values were obtained:
SWV mice = test: DTG-NTD susceptibility, embryo phenotyping on GD 9.5, SWV dams; assay type: in vivo, mouse
Text: (§1) Breeding colonies and experimental mice were housed in Thoren micro-isolator cages with autoclaved corncob bedding and maintained on a 12-h light-dark cycle in climate-controlled AAALAC-accredited animal facilities at Creighton University. Mice were given ad libitum access to autoclaved water and pelleted irradiated rodent chow. For timed matings, nulliparous female mice were placed with a male overnight (1 male:2-3 females). The presence of a vaginal plug the next morning was considered GD 0.5. Plugged females were weighed, placed into a separate cage, and randomly assigned to a treatment group. All animal procedures were performed in accordance with the Public Health Service (PHS) policy on Humane Care and Use of Laboratory Animals and approved by the Creighton University Institutional Animal Care and Use Committee (IACUC).
(§2) Dolutegravir (CAS 1051375-16-6, GSK1349572) was purchased from MedKoo Biosciences (Morrisville, NC). Pregnant mice were dosed with vehicle (dimethylsulfoxide: Solutol®: 50 mM N-methylglucamine in 3% mannitol [1:1:8, v:w:v]) ([Moss et al., 2015]) or DTG (500 mg/kg or 750 mg/kg) by daily oral gavage beginning on GD 0.5 and continuing until the day of sacrifice (GD 9.5). All treatments were administered in a volume of 0.1 mL/10 g bodyweight (bwt).
(§3) The SWV and LM/Bc breeding colonies have been maintained on Envigo Rodent Chow #8904 (a soy protein-based irradiated diet) for >20 years. C3H/HeJ and C57BL/6J mice (6–10 weeks old) were immediately placed on Envigo #8904 upon arrival at Creighton University and were maintained on this diet for a minimum of 1 month prior to analysis of basal plasma and urine cations. The National Research Council (NRC) estimate for the minimum Mg^2+ requirement in adult mice is […] of diet (0.05%). Magnesium in standard rodent diets ranges between […]; the Envigo #8904 soy diet contains .3% Mg^2+ by weight ([…] the NRC requirement) and was therefore considered a ‘high’ Mg^2+ diet. Sources of Mg^2+ in the soy diet include magnesium oxide (∼20%) and Mg^2+ found naturally in grain ingredients (∼80%); it was therefore not possible to remove Mg^2+ to create a soy-based version that was Mg^2+ deficient. To test the hypothesis that low maternal plasma Mg^2+ prior to conception would increase susceptibility to DTG-induced NTDs, it was necessary to switch to casein-based purified ingredient diets with defined levels of Mg^2+ added back. The following casein-based purified ingredient diets were selected as experimental diets: TD.120,574 high Mg^2+ diet (.3% Mg^2+ oxide added to match the .3% high Mg^2+ soy-based diet); TD.98341 control Mg^2+ diet with 0.05% Mg oxide added back to match the NRC requirement; and TD.93106 Mg^2+-deficient diet (<.003%, no Mg^2+ added back). The purified casein diets met or exceeded the NRC requirements for all other minerals and vitamins, including folic acid (Supplementary Table S1: Diet Comparison). Thus, the 4 experimental diets were as follows: 1) high Mg^2+ (.3%) soy diet; 2) high Mg^2+ ([…]) casein diet; 3) control Mg^2+ (.05%) casein diet; and 4) deficient Mg^2+ (<.003%) casein diet. […] Our initial DTG teratology studies were performed in mice on the high Mg^2+ soy diet. However, our objective in the second set of experiments was to reduce pre-conception plasma Mg^2+ levels prior to DTG exposure. To accomplish this objective, weaned female mice were placed on either the high Mg^2+ casein diet or one of the 2 casein-based experimental diets with reduced Mg^2+ (control or deficient) for a minimum of 2 weeks. After this minimum period of acclimation to the experimental casein-based diets, blood and urine samples were collected for Inductively Coupled Plasma Mass Spectrometry (ICP-MS) determination of Mg^2+ (and other cations).
(§4) Pregnant dams were anesthetized with isoflurane and sacrificed by cervical dislocation on GD 9.5. […]

C57BL/6J mice = test: DTG-NTD susceptibility, embryo phenotyping on GD 9.5, C57BL/6J dams; assay type: in vivo, mouse
Text: as §1, §2, §3, §4

[1] = cited from earlier work
Whole rat embryos = test system: Whole rat embryos; design: method as in Posobiec et al., 2021; conditions: exposure GD 9-11; concentrations approx. 2 times plasma concentration at MRHD; ref Posobiec et al., 2021; cited from earlier work
[2] = test system: Madin-Darby canine kidney II cells; design: method as in Zamek-Gliszczynski et al., 2019; conditions: ref Zamek-Gliszczynski et al., 2019; cited from earlier work
FOLR1 [3] = test system: FOLR1; design: method as in Cabrera et al., 2019; conditions: human placental trophoblast cells; ref Cabrera et al., 2019; cited from earlier work
FOLR1 [4] = test system: FOLR1; design: method as in Gilmore et al., 2022; conditions: human choriocarcinoma cells; ref Gilmore et al., 2022; cited from earlier work
[5] = test system: human embryonic stem cell (hESC) lines; design: method as in Smith et al., 2022; conditions: 2 different hESC lines; ref Smith et al., 2022; cited from earlier work
[6] = Mg2+-deficient (<0.003%) casein diet, DTG750
[7] = high Mg2+ (0.3%) soy diet, DTG 750 mg/kg/d oral GD 0.5-GD 9.5
[8] = high Mg2+ (0.3%) soy diet, DTG 750 mg/kg/d oral GD 0.5-GD 9.5, average % (SD)
[9] = high Mg2+ (0.3%) soy diet, DTG 750 mg/kg/d oral GD 0.5-GD 9.5, mean (SD)
[10] = high Mg2+ (0.3%) soy diet, DTG 750 mg/kg/d oral GD 0.5-GD 9.5, mean (SD) per litter
[11] = human, non-pregnant, 50 mg single dose, ref Min et al., 2010
[12] = human, non-pregnant, 100 mg single dose, ref Min et al., 2010
[13] = human, non-pregnant, 100 mg × 7d, ref Wang et al., 2019
[14] = pregnant women, 2nd trimester, 50 mg/d, ref Mulligan et al., 2018

With `C[C@@H]1CCO[C@H]2Cn3cc(C(=O)NCc4ccc(F)cc4F)c(=O)c(O)c3C(=O)N12` [DTG, Dolutegravir] the NTD-affected litters (SWV mice; [6]) was 75%, the “NTD-affected litters / litters examined” value (SWV mice; [6]) was 6/8 and the “NTDs per affected litter” value (SWV mice; [6]) was 1-4. The “total NTDs” value (SWV mice; [6]) was 11, the Affected litters % (SWV mice; [7]) was 7.7% and the “Dev delay/implants, index value” (SWV mice; [8]) was 2.0% (3.19). The “NTDs/embryos, index value” (SWV mice; [8]) was 1.8% (6.40), the “NTDs/implants, index value” (SWV mice; [8]) was 1.6% (5.94) and the “Resorptions/implants, index value” (SWV mice; [8]) was 5.0% (7.62). For the same compound, the Implants per litter (SWV mice; [9]) was 13.15 (2.12)^**, the Resorptions per litter (SWV mice; [9]) was 0.62 (0.87) and the Dev. delayed (SWV mice; [10]) was 0.31 (0.48). For the same compound, the NTDs (SWV mice; [10]) was 0.23 (0.83), the Total viable embryos (SWV mice; [10]) was 12.54 (2.37)^** and the “NTD-affected litters / litters examined” value (SWV mice; high Mg2+ soy diet, DTG750) was 1/13. For the same compound, the “total pups with exencephaly” value (SWV mice; high Mg2+ soy diet, DTG750) was 3, the Affected litters % (C57BL/6J mice; [7]) was 0.0% and the “Dev delay/implants, index value” (C57BL/6J mice; [8]) was 1.9% (4.15). For the same compound, the “NTDs/embryos, index value” (C57BL/6J mice; [8]) was 0.0% (0.00), the “NTDs/implants, index value” (C57BL/6J mice; [8]) was 0.0% (0.00) and the “Resorptions/implants, index value” (C57BL/6J mice; [8]) was 5.3% (9.30). For the same compound, the Implants per litter (C57BL/6J mice; [9]) was 9.80 (1.48), the Resorptions per litter (C57BL/6J mice; [9]) was 0.50 (0.85) and the Dev. delayed (C57BL/6J mice; [10]) was 0.20 (0.42). The NTDs (C57BL/6J mice; [10]) was 0.00 (0.00), the Total viable embryos (C57BL/6J mice; [10]) was 9.30 (1.77) and the NTDs observed (C57BL/6J mice; high Mg2+ soy diet, DTG750, n = 10 litters) was “No NTDs”. For the same compound, the “AUC 0-24” value [1, 11] was 70.8 (50 mg single dose) ^1 µg*h/mL, the Cmax [1, 11] was 4.6 (50 mg single dose) ^1 µg/mL and the Tmax [1, 11] was 1.25 h (50 mg single dose) ^1. For the same compound, the t½ [1, 11] was 13–14 h (50 mg single dose) ^1, the “AUC 0-24” value [1, 12] was 131 (100 mg single dose) ^1 µg*h/mL and the Cmax [1, 12] was 8.1 (100 mg single dose) ^1 µg/mL. For the same compound, the “AUC 0-24” value [1, 13] was 92.3 (100 mg × 7d) ^2 µg*h/mL, the Cmax [1, 13] was 6.7 (100 mg × 7d) ^2 µg/mL and the “AUC 0-24” value [1, 14] was 47.6 (33.4–63.7) (2nd trimester, 50 mg/d) ^3 µg*h/mL. The Cmax [1, 14] was 3.62 (2.57–4.63) µg/mL, the Tmax [1, 14] was 2 h (2nd trimester, 50 mg/d) ^3 and the t½ [1, 14] was 11 h (2nd trimester, 50 mg/d) ^3. The “developmental toxicity or NTDs” value (Whole rat embryos) was “no developmental toxicity or NTDs were observed”, the “effect on inhibition of folate transport” value [2] was “did not find a significant DTG or INSTI class effect” and the “FOLR1-mediated uptake of folic acid” value (FOLR1 [3]) was “partially inhibited”. The FOLR1-mediated uptake (FOLR1 [4]) was “reduced” and the “effect on hESC” value [5] was “cytotoxicity and a dose-dependent loss of pluripotency”.

Source: article PMC10292217, “Gene-nutrient interactions that impact magnesium homeostasis increase risk for neural tube defects in mice exposed to dolutegravir” (Frontiers in Cell and Developmental Biology, 2023)
